This note sets out measurements from patent US20190062362A1, “METHOD FOR OBTAINING SURFACTANT COMPOSITIONS MADE FROM ALKYL-L-GULURONAMIDES” (ÉCOLE NATIONALE SUPÉRIEURE DE CHIMIE, priority 2015, published 2019).

Common to all, as to experiment: Protocol A: agar deposit test, clarification zone
Holding throughout (format): cell-based

The subject of assay [1] is Enterococcus faecium. To be noted: E. faecium; antibiotic disk. As for the experimental part: (§1) The culture medium used was a mixture of 21 g/L of Muller-Hinton broth and 10 g/L of agar in water. This mixture was stirred and then left to boil. Next, a step of autoclaving of this mixture, for 30 minutes, was desired in this embodiment so as to sterilize it before any manipulation. This culture medium was poured hot into Petri dishes and then left to cool.
(§2) 5 mg of each modified sugar were dissolved in 1 mL of DMSO. Twofold serial dilution with DMSO was then performed using the stock solution, so as to obtain concentrations of 2.5 g/L, 1.25 g/L, 0.625 g/L and 0.3125 g/L.
(§3) The bacterial strains used were Pseudomonas aeruginosa, Escherichia Coli, Enterococcus faecium and Staphylococcus aureus, and also the fungal strain Candida albicans. 10^6 bacteria were taken and then transferred into 0.9% NaCl solution. Each Petri dish, containing Muller-Hinton medium, was flooded with a different bacterial suspension.
(§4) After allowing the bacterial suspensions to dry on the agar, 10 μL of each test solution, and at various concentrations, were deposited on the surface of the agar flooded with the bacterial suspension. 10 μL of DMSO were placed in each Petri dish as a negative control.
(§5) The positive controls used were disks soaked with ampicillin for Escherichia coli and Enterococcus faecium, ceftazidime disks for Pseudomonas aeruginosa and vancomycin disks for Staphylococcus aureus.
(§6) After drying, the Petri dishes were finally incubated at 37° C. in an oven, for 24 hours. The antibacterial activity was evaluated by measuring the clarification zone in millimeters around the point of deposition of the various test solutions.

The test system of assay [2] is Escherichia Coli. To be noted: E. coli; for inhibitory activity on growth (in words): text summary of protocol A. As for the experimental part:
as §1, §2, §3, §4, §5, §6

Assay [3] deals with Pseudomonas aeruginosa. As to conditions: P. aeruginosa; for inhibitory activity on growth (in words): text summary of protocol A. Here is the method:
as §1, §2, §3, §4, §5, §6

The test system of assay [4] is Staphylococcus aureus. To be noted: S. aureus. As for the experimental part: as §1, §2, §3, §4, §5, §6
Assay [5] deals with Candida albicans. To be noted: C. albicans; text summary of protocol A. Here is the method: as §1, §2, §3
After allowing the bacterial suspensions to dry on the agar, 10 μL of each test solution, and at various concentrations, were deposited on the surface of the agar flooded with the bacterial suspension. […]
as §6

As for `CC1(C)S[C@@H]2[C@H](NC(=O)[C@H](N)c3ccccc3)C(=O)N2[C@H]1C(=O)O` [Ampicillin, reference compound], the “clarification zone, positive control” value in assay [1] is on record as 26 mm; in assay [2] (antibiotic disk), 22 mm.

For `CC(C)(O/N=C(\C(=O)N[C@@H]1C(=O)N2C(C(=O)[O-])=C(C[n+]3ccccc3)CS[C@H]12)c1csc(N)n1)C(=O)O` [Ceftazidime, reference compound], the “clarification zone, positive control” value in assay [3] (antibiotic disk) worked out at 28 mm.

As for `CN[C@H](CC(C)C)C(=O)N[C@H]1C(=O)N[C@@H](CC(N)=O)C(=O)N[C@H]2C(=O)N[C@H]3C(=O)N[C@H](C(=O)N[C@H](C(=O)O)c4cc(O)cc(O)c4-c4cc3ccc4O)[C@H](O)c3ccc(c(Cl)c3)Oc3cc2cc(c3O[C@@H]2O[C@H](CO)[C@@H](O)[C@H](O)[C@H]2O[C@H]2C[C@](C)(N)[C@H](O)[C@H](C)O2)Oc2ccc(cc2Cl)[C@H]1O` [Vancomycin, reference compound], the “clarification zone, positive control” value in assay [4] (antibiotic disk) stood at 19 mm.

On to N-(12 dodecyl)-n-butyl L-guluronamide, for which the “inhibitory activity on growth (in words)” value in assay [3] and in assay [2] was “neither the N-(12 dodecyl)-n-butyl L-guluronamide nor the N-(18 octadecyl)-n-butyl L-guluronamide (whether in furanose or pyranose form) showed any inhibitory activity” in each case.

Consider N-(18 octadecyl)-n-butyl L-guluronamide, for which the “inhibitory effect (in words)” value in assay [5] and in assay [4] (text summary of protocol A) was “no inhibitory effect” each time. For the same molecule, the “inhibitory activity on growth (in words)” value in assay [3] and in assay [2] was “neither the N-(12 dodecyl)-n-butyl L-guluronamide nor the N-(18 octadecyl)-n-butyl L-guluronamide (whether in furanose or pyranose form) showed any inhibitory activity” each time.
